Data: patent US12478620B2, “Cyano-substituted cyclic hydrazine derivative and application thereof” (E-nitiate Biopharmaceuticals (Hangzhou) Co., Ltd, priority 2019, dated 2025)

Assays:
[1] = molecular target: JAK1 (Homo sapiens, UniProt P23458); test: JAK kinase inhibitor activity detection (ULight-JAK-1 substrate, Eu-labeled anti-phosphotyrosine antibody), JAK1; type: biochemical; settings: JAK1 10 nM, substrate 50 nM, ATP 40 uM, 2 h room temperature
Method: (§1) Activity Detection of Small Molecule Inhibitors of JAK Kinase
(§2) • (1) kinase reaction buffer • Prepare the kinase reaction buffer with the following components: 50 mM HEPES, pH 7.5, 1 mM EGTA, 10 mM MgCl2, 2 mM DTT, 0.01% Tween20 • (2) 1× detection buffer • To prepare detection buffer, dilute 10× detection buffer to 1× with deionized water 9:1 • (3) 4× kinase solution • Dilute JAK to 4× final concentration by JAK reaction buffer (JAK1: 40 nM, JAK2: 0.5 nM) • (4) 4× substrate solution • Dilute ULight™-JAK-1 (Tyr1023) substrate to 200 nM by kinase reaction buffer (final concentration: 50 nM) • (5) 4×ATP solution • Dilute ATP to 4× final concentration by kinase reaction buffer (JAK1: 160 μM, JAK2: 40 μM) • (6) 4× compound testing solution • DMSO dissolves the testing compound into 10 mM stock solution, then prepared to the desired concentration with 3-fold serial dilution, and 10 concentration points were set for each compound. Besides, the final concentration range of the testing compound is: 10 μM-0.5 nM • (7) 4× enzyme reaction termination liquid • 1× test buffer dissolves EDTA to 40 mM (EDTA final concentration: 10 mM) • (8) 4× antibody detection solution • 1× test buffer dilutes Eu labeled antibody (anti-phosphotyrosine (PT66)) to 8 nM (antibody final concentration: 2 nM) 2. Experimental Process • (1) Successively add 2.5 μL 4×JAK solution, and 2.5 μL of diluted 4× test compound solution in different concentrations to the 384 microporous plate, and set 2 multi-wells for each concentration. Meanwhile, set enzyme solution blank control group and negative control group (DMSO group). • (2) Shake the 384-hole plate, mix enzymes and compounds, centrifuge at 1000 rpm for 1 minute, and incubate at room temperature for 60 minutes • (3) Add 2.5 μL of 4× substrate solution to a 384-hole plate and centrifuge at 1000 rpm for 1 min • (4) Add 2.5 μL of 4×ATP solution to the 384 multi-well plate and centrifuge at 1000 rpm for 1 minute to initiate the enzyme reaction. • (5) JAK1 reacts at room temperature for 2 h, and JAK2 react at room temperature for 1 h. • (6) The final concentrations of each group of the JAK1 reaction are: JAK1: 10 nM, substrate: 50 nM, ATP: 40 uM, and the final concentration range of the test compound is: 10 μM-0.5 nM • The final concentrations of each group of the JAK2 reaction are: JAK2: 0.125 nM, substrate: 50 nM, ATP: 10 μM, and the final concentration range of test compounds is: 10 μM-0.5 nM • (7) After the enzyme reaction, add 5 μL of 4× enzyme reaction stop solution to each well of the 384-well plate with 1000 rpm, centrifuge for 1 minute, and incubate at room temperature for 5 min. • (8) Add 5 μL of 4× detection antibody solution to each well of a 384-well plate (final concentration of detection antibody is 2 nM) with 1000 rpm, centrifuge for 1 minute, and incubate at room temperature for 1 h. • (10) After antibody incubation, measure the signal value of each well on an Envision plate reader 3. Data Analysis • (1) Taking the enzyme solution blank control group as 100% inhibition rate and the negative control group (DMSO group) as 0% inhibition rate, calculate the percentage inhibition rate corresponding to each concentration of the tested compounds • (2) In GraphPad Prism software, nonlinear regression analysis is performed on the concentration logarithm of the test compound and the corresponding percentage inhibition rate to obtain the half-inhibitory concentration (IC50) of the test compound.

[2] = molecular target: JAK2 (Homo sapiens, UniProt O60674); test: JAK kinase inhibitor activity detection (ULight-JAK-1 substrate, Eu-labeled anti-phosphotyrosine antibody), JAK2; type: biochemical; settings: JAK2 0.125 nM, substrate 50 nM, ATP 10 μM, 1 h room temperature
JAK2, sequence (O60674 whole entry, species assumed): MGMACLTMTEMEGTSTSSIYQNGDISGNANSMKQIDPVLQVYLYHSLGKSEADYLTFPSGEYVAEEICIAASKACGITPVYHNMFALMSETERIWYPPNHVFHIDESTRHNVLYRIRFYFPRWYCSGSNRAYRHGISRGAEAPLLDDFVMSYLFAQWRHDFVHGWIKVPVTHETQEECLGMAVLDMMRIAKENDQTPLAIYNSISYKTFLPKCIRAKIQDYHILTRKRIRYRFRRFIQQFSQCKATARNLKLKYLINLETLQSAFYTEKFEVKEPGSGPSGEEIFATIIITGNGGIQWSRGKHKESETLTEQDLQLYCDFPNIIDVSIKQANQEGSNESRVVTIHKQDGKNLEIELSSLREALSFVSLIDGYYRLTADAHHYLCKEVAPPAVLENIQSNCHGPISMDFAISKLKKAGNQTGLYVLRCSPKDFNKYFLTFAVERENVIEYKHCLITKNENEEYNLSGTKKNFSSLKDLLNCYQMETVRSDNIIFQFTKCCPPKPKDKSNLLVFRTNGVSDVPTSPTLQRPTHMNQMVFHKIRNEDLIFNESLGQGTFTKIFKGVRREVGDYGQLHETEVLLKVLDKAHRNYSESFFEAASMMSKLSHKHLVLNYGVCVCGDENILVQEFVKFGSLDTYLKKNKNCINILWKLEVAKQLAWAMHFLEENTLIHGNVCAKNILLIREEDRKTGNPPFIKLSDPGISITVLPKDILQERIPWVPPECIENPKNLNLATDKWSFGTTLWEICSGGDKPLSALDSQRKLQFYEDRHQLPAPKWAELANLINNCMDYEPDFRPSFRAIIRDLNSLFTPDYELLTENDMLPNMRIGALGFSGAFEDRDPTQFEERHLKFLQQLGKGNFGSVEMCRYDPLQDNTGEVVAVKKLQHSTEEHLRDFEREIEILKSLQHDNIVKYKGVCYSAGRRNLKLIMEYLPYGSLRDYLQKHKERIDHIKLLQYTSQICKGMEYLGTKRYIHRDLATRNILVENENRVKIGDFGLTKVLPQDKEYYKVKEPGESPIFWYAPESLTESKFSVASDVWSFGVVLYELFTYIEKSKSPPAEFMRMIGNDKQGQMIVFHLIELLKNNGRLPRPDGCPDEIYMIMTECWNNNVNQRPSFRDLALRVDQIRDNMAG
Method: as §1, §2

JAK1, sequence (P23458 whole entry, species assumed): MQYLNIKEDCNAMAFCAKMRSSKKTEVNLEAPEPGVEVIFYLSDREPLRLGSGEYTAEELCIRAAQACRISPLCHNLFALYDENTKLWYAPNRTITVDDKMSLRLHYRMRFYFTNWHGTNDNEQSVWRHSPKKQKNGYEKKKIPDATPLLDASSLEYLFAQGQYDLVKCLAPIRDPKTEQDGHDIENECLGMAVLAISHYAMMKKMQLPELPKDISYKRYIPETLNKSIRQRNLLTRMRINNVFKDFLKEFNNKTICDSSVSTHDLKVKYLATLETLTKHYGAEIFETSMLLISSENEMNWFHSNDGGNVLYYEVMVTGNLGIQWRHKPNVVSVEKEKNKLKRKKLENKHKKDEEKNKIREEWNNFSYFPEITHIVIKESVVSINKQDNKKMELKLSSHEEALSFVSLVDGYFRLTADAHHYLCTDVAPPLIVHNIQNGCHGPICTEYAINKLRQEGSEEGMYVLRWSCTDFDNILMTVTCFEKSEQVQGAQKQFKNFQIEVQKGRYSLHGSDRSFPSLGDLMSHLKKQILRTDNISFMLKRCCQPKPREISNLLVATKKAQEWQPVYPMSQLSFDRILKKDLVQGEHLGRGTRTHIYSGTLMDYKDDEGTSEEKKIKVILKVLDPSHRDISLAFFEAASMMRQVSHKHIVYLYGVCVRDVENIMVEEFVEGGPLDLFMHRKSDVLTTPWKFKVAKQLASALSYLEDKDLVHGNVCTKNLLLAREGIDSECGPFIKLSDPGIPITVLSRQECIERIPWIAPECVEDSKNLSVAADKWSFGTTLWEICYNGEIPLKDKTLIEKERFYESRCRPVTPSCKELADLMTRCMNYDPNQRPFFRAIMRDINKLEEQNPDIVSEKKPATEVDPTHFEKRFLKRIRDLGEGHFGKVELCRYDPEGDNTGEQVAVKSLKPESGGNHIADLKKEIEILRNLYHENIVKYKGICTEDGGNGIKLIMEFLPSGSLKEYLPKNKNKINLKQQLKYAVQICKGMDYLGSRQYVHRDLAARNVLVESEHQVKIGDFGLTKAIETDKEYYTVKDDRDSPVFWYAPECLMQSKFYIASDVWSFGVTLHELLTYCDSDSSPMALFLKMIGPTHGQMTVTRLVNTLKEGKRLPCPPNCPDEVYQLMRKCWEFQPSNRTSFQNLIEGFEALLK

SMILES	IC50 [1]	IC50 [2]
CC1CN(C(=O)CC#N)CN1n1cnc2cnc3[nH]ccc3c21 (stereo not shown) [Example 30, 3-(4-methyl-3-(imidazo[4,5-d]pyrrolo[2,3-b]pyridine-1(6H)-yl)imidazoline-1-yl)-3-Oxopropionitrile]	2.8 nM	28.1 nM
N#CCC(=O)N1CCN(n2cnc3cnc4[nH]ccc4c32)C1 [Example 31, 3-(3-(imidazo[4,5-d]pyrrolo[2,3-b]pyridine-1(6H)-yl)imidazoline-1-yl)-3-oxopropionitrile]	6.9 nM	71.8 nM
CC[C@@H]1CN(C(=O)CC#N)CN1n1cnc2cnc3[nH]ccc3c21 [Example 32, (R)-3-(4-ethyl-3-(imidazo[4,5-d]pyrrolo[2,3-b]pyridine-1(6H)-yl)imidazoline-1-yl)-3-oxopropionitrile]	6.8 nM	15.3 nM
N#CCC(=O)NC1CCN(n2cnc3cnc4[nH]ccc4c32)C1 (stereo not shown) [Example 33, 2-cyano-N-(1-(imidazo[4,5-d]pyrrolo[2,3-b]pyridine-1(6H)-yl)pyrrolidine-3-yl)acetamide]	11.2 nM	29.1 nM
N#CCNC1CCN(n2cnc3cnc4[nH]ccc4c32)C1 (stereo not shown) [Example 34, 2-((1-(imidazo[4,5-d]pyrrolo[2,3-b]pyridine-1(6H)-yl)pyrrolidine-3-yl)amino)acetonitrile]	73.8 nM	51.7 nM
CC[C@@H]1C[C@H](C#N)CN1n1cnc2cnc3[nH]ccc3c21 [Example 35, (3S,5R)-5-ethyl-1-(imidazo[4,5-d]pyrrole[2,3-b]pyridine(6H)-yl)pyrrolidine-3-carbonitrile]	9.5 nM	61.3 nM

More lines, now with the values ahead:

IC50 [1]	IC50 [2]	SMILES
6.8 nM	23.5 nM	CC[C@@H]1C[C@@H](CC#N)CN1n1cnc2cnc3[nH]ccc3c21 [Example 36-1, 2-((3S,5R)-5-ethyl-1-(imidazo[4,5-d]pyrrolo[2,3-b]pyridine-1(6H)-yl)pyrrolidin-3-yl) acetonitrile]
43.6 nM	127 nM	CC[C@@H]1C[C@H](CC#N)CN1n1cnc2cnc3[nH]ccc3c21 [Example 36-2, 2-((3R,5R)-5-ethyl-1-(imidazo[4,5-d]pyrrolo[2,3-b]pyridine-1(6H)-yl)pyrrolidin-3-yl) acetonitrile]
